These results are taken from PubChem BioAssay (NCI).

Structures are written as SMILES.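 Compound exposure: 48 hours, 5 concentrations, 96-well plates. TGI: total growth inhibition.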 Some results are limits rather than exact numbers.

Some test systems named below: A498 renal; SF-539 CNS; NCI-H23 lung; MDA-MB-435; SR leukemia; PC-3 prostate; SW-620 colon; EKVX NSCLC; MDA-MB-231 breast; HOP-92 NSCLC; RPMI-8226 leukemia; HCC-2998 colon; NCI/ADR-RES ovarian; KM12 colon; HCT-116 colon; DMS 114 small cell lung; NCI-H460 lung; DLD-1 colon; MOLT-4 leukemia; UACC-62 melanoma.
Assay in all cases: NCI anticancer screen, dose series, 48 h

`COC(=O)/C=C\Sc1ccn(/C=C\C(=O)OC)c(=S)n1`: the TGI with A498 renal is 35.6 µM; in the assay with SF-539 CNS, 36.9 µM; in the assay with NCI-H23 lung, 64.3 µM; in the assay on MDA-MB-435, 86.6 µM; in the assay with SR leukemia, 38.8 µM; in the assay with PC-3 prostate, 46.5 µM. The TGI with SW-620 colon was 56.5 µM; with EKVX NSCLC, 68.2 µM; in the assay on MDA-MB-231 breast, 56.7 µM; with HOP-92 NSCLC, 47.7 µM; with RPMI-8226 leukemia, more than 100 µM; with HCC-2998 colon, more than 100 µM. Moreover, the results for the TGI in the assay on NCI/ADR-RES ovarian and in the assay on KM12 colon were 40.7 µM and 42.8 µM, respectively.
Regarding `CC1(C)OP23(NC(=O)OC2(C(F)(F)F)c2ccccc2O3)OC1(C)C` (configuration not stated), the TGI in the assay on SF-539 CNS, in the assay on HCT-116 colon, with NCI-H23 lung, in the assay on DMS 114 small cell lung, with NCI-H460 lung and in the assay with DLD-1 colon was more than 100 µM in each case. Moreover, the TGI in the assay with MOLT-4 leukemia, in the assay with UACC-62 melanoma and in the assay with KM12 colon was more than 100 µM in each case.
`CN(C)c1ccc(N2C(=S)SC(=Nc3ccccc3)C2=Nc2ccccc2)cc1`: the TGI in the assay on A498 renal, with HCT-116 colon, with NCI-H23 lung, in the assay on MDA-MB-435, in the assay on SR leukemia and with PC-3 prostate was more than 100 µM each time. Also, the TGI with MDA-MB-231 breast, with NCI-H460 lung, in the assay with RPMI-8226 leukemia, with HCC-2998 colon, in the assay with NCI/ADR-RES ovarian and in the assay with UACC-62 melanoma was more than 100 µM each time. This molecule also yielded a TGI in the assay on KM12 colon of more than 100 µM.
In the case of `O=C(CCCn1cnc([N+](=O)[O-])n1)NCCn1ccnc1[N+](=O)[O-]`, the TGI in the assay with NCI-H23 lung, in the assay with SR leukemia, in the assay with PC-3 prostate, in the assay with SW-620 colon, with EKVX NSCLC and with NCI-H460 lung was more than 100 µM each time. Further, the TGI in the assay with MOLT-4 leukemia, in the assay on HOP-92 NSCLC, with RPMI-8226 leukemia, with UACC-62 melanoma and in the assay on KM12 colon was more than 100 µM each time.
